Laboratory results: patent US20040038855A1 (priority 1999, published 2004)
Structures can show the parent of a compound that is named as a salt. Where two headings read alike, the source gives them in different places.

How the values were obtained:
[1] = target: human MCH1 receptor (Homo sapiens, UniProt Q99705); assay: Intracellular calcium response to MCH in COS-7 cells transfected with MCH1 (fluo-3, FLIPR): antagonist potency; type: cell-based; parameters: expressed in transfected cells; host or cells: COS-7
Description: MCH1 antagonist compounds were identified by their ability to inhibit the MCH-elicited response. […]. From the IC50 values, the antagonist potency (Kb)was derived using the Cheng-Prussof correction (Lazareno and Birdsall, 1993). […]

[2] = target: T1, human Alpha-1a Adrenergic receptor (Homo sapiens, UniProt P35348); assay: Binding affinity at the human alpha-1A adrenergic receptor
T1 construct: expressed in transfected cells
T1 sequence (P35348 1-466): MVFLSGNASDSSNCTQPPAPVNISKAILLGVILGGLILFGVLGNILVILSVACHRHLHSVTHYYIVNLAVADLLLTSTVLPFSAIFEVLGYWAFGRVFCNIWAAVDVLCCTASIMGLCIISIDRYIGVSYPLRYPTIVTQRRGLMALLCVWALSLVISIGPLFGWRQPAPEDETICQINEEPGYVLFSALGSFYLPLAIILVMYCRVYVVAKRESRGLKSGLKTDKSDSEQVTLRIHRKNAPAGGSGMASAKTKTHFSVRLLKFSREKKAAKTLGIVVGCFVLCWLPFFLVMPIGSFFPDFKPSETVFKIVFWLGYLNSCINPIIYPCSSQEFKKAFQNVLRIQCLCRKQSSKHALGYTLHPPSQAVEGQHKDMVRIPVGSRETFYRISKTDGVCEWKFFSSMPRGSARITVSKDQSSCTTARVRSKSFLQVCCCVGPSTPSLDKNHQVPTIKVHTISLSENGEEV
Method in brief: (§1)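 Receptor binding read-out throughout; membranes expressing human D1 or D2 receptor were used for those two targets.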

[3] = target: T2, human Histamine H1 receptor (Homo sapiens, UniProt P35367); assay: Binding affinity at the human histamine H1 receptor
T2 construct: expressed in transfected cells
Method in brief: as §1

[4] = target: T3, human dopamine D1 receptor (Homo sapiens, UniProt P21728); assay: Binding affinity at the human dopamine D1 receptor; conditions: Table 3d; read-out: hD1 Ki
T3 construct: purchased BioSignal, Inc. (Montreal, Canada)
Description: (§2) Other receptors: Cell membranes expressing human dopamine D1, D2, D4 and rat D3 receptors were purchased through BioSignal, Inc. (Montreal, Canada). Binding assays using the histamine H1 receptor; dopamine receptors; and α1A, α1B, and α2 adrenergic receptors may be carried out according to the procedures described in U.S. Pat. No. 5,780,485, the disclosure of which is hereby incorporated by reference in its entirety into this application. Binding assays using the dopamine D5 receptor may be carried out according to the procedures described in U.S. Pat. No. 5,882,855, the disclosure of which is hereby incorporated by reference in its entirety into this application. Binding assays for the human α1D adrenergic receptor may be carried out according to the procedures described in U.S. Pat. No. 6,156,518, the disclosure of which is hereby incorporated by reference in its entirety into this application.

[5] = target: rat D3 receptor (Rattus norvegicus, UniProt P19020); assay: Binding affinity at the rat dopamine D3 receptor; conditions: Table 3d; read-out: rD3 Ki
Description: as §2

[6] = target: T4, human 5HT2A receptor (Homo sapiens, UniProt P28223); assay: Binding affinity at the human 5HT2A receptor ([3H]ketanserin); conditions: Table 3e; read-out: h5HT2A Ki
T4 construct: expressed in transfected cells; host or cells: COS7 cells, transient, DEAE dextran, vector pCEXV3
Description: Human 5HT2A Receptor: The coding sequence of the human 5HT2A receptor was obtained from a human brain cortex cDNA library, and cloned into the cloning site of pCEXV3 eukaryotic expression vector. This construct was transfected into COS7 cells by the DEAE dextran method (Cullen, 1987). Cells were harvested after 72 hours and lysed by sonication in 5 mM Tris HCl, 5 mM EDTA, pH 7.5. The cell lysates were subjected to centrifugation at 1000 rpm for 5 minutes at 4° C., and the supernatant was subjected to centrifugation at 30,000×g for 20 minutes at 4° C. The pellet was suspended in 50 mM Tris HCl buffer (pH 7.7 at room temperature) containing 10 mM MgSO4, 0.5 mM EDTA, and 0.1% ascorbate. […] Nonspecific binding was defined by the addition of 10 μM mianserin. The bound radioligand was separated by filtration through GF/B filters using a cell harvester.

[7] = target: T5, human Dopamine D2 receptor (Homo sapiens, UniProt P14416); assay: Binding affinity at the human dopamine D2 receptor; conditions: Table 3d; * = >50000; read-out: hD2 Ki
T5 construct: purchased BioSignal, Inc. (Montreal, Canada)
Method in brief: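 D5 receptor binding is run per one prior patent's protocol, while dopamine and α2 adrenergic binding follow another; human D1 and D2 receptors were supplied as expressing cell membranes.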

[8] = target: T6, human H2 histamine receptor (Homo sapiens, UniProt P25021); assay: Binding affinity at the human histamine H2 receptor
T6 construct: expressed in transfected cells
Description: Binding studies for the β-adrenoceptor may be performed according to the method of Riva and Creese, 1989. Binding assays for the remainder of the receptors may be carried out according to the procedures described in U.S. Pat. No. 5,780,485, the disclosure of which is hereby incorporated by reference in its entirety into this application.

[9] = target: T7, human dopamine D5 receptor (Homo sapiens, UniProt P21918); assay: Binding affinity at the human dopamine D5 receptor; conditions: Table 3d; read-out: hD5 Ki
T7 construct: expressed in transfected cells
Description: as §2

T2 sequence (P35367 whole entry): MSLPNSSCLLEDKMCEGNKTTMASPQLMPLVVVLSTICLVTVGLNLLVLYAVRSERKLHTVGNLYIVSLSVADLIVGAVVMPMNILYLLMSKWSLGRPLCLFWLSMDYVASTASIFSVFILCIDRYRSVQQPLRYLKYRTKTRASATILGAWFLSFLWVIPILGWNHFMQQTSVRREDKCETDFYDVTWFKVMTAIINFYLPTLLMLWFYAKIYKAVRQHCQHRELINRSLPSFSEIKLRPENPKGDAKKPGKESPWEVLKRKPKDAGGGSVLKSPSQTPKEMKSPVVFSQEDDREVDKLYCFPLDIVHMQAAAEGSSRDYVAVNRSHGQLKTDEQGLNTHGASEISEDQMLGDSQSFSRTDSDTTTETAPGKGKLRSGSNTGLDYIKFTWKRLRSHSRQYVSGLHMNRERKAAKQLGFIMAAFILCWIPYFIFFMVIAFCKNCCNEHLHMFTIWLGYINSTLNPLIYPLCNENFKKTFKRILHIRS
T6 sequence (P25021 whole entry): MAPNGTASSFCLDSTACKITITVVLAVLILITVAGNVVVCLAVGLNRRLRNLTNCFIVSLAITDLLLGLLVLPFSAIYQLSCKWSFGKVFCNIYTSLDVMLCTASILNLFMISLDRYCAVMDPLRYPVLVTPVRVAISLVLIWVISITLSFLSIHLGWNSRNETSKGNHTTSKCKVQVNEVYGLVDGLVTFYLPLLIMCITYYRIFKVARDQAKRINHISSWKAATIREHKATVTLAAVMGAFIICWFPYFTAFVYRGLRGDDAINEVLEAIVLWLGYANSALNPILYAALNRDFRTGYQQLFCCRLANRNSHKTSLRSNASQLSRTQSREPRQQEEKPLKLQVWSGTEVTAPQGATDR
human MCH1 receptor, sequence (Q99705 whole entry): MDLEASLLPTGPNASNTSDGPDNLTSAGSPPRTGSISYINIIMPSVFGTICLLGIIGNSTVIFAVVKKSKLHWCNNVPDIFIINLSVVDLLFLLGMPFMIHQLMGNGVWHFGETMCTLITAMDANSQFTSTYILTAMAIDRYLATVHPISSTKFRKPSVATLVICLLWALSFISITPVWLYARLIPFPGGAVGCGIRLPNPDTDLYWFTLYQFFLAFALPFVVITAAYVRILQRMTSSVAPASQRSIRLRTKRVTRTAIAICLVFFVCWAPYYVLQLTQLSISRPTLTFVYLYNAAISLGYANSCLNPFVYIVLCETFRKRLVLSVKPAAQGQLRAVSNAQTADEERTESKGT
T3 sequence (P21728 whole entry): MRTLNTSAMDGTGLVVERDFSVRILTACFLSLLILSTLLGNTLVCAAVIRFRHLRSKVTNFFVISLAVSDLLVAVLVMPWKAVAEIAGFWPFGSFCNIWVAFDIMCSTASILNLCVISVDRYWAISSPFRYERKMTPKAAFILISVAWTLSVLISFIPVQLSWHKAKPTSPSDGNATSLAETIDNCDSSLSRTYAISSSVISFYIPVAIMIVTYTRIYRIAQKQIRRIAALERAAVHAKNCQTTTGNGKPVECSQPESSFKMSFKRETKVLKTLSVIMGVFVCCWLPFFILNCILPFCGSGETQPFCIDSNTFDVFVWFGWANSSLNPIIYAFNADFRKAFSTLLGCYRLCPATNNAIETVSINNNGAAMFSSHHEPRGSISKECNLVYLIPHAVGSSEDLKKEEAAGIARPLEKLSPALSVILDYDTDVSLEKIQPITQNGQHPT
T4 sequence (P28223 whole entry): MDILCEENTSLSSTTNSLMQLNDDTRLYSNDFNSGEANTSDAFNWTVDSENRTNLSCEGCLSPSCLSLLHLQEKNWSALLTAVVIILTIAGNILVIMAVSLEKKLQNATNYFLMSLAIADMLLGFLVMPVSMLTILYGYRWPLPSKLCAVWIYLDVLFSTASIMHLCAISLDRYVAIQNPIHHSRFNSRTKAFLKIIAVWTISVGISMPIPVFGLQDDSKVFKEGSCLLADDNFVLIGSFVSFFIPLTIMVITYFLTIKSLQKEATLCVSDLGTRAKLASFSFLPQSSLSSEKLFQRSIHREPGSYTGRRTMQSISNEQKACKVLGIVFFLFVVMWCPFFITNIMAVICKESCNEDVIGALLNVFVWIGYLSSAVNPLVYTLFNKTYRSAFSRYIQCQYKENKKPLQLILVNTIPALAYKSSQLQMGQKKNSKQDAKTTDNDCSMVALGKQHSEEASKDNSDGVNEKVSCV
T7 sequence (P21918 whole entry): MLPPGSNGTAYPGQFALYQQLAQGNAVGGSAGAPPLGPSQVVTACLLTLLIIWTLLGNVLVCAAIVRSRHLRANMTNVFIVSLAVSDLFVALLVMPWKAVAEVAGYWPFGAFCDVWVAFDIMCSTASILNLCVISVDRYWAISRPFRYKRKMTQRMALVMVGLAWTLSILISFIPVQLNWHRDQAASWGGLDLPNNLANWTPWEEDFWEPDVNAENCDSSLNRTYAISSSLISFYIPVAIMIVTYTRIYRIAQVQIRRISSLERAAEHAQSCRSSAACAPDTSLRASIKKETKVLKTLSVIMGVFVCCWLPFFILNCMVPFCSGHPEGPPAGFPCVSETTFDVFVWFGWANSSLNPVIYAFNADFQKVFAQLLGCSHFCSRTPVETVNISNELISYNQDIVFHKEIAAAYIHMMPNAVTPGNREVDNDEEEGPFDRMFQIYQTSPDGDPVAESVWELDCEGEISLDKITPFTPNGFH
T5 sequence (P14416 whole entry): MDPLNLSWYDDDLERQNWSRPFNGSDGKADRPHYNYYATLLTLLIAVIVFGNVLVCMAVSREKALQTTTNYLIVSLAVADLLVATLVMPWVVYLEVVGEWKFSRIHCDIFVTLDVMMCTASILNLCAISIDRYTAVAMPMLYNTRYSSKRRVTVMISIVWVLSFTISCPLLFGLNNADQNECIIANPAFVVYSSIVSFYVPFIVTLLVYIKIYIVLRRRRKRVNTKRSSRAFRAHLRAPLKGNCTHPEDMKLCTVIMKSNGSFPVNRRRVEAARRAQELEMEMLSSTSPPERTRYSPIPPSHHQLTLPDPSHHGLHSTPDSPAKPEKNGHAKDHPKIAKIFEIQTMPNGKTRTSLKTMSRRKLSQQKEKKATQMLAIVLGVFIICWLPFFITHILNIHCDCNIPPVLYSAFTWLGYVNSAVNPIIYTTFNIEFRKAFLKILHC
rat D3 receptor, sequence (P19020 whole entry): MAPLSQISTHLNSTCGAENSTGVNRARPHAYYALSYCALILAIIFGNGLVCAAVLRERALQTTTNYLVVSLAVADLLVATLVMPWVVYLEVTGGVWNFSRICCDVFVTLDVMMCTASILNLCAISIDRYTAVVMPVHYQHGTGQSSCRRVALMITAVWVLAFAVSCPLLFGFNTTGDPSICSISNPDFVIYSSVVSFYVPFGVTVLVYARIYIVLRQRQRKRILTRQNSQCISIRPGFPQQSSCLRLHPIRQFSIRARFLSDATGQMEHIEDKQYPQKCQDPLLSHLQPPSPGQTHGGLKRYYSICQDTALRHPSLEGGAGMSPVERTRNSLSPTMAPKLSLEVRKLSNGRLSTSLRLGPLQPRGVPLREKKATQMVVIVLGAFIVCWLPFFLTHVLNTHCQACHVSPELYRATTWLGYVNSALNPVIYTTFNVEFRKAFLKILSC

Compound | Ki ([2]; Table 3d, read-out: hα1A Ki) | Ki ([3]; Table 3e, read-out: hH1 Ki) | Ki [4] | Ki [5] | Ki [6] | Ki [7] | Ki [8] | Ki [9] | Ki [3] | Kb ([1]; read-out: Kb (nM) hMCH1) | also measured
2-(3,4-DIFLUOROPHENYL)4,5-DIHYDROIMIDAZOLE-1-CARBOXYLIC ACID {3-[4-PHENYL-4-(4-BROMO-5-METHYLTHIOPNEN-2-YL)]-PROPYL}-AMIDE [Example 19] | 2.5 nM | 11 nM |  |  |  |  |  |  |  |  | Kb ([1]; Table 3a, antagonist potency, read-out: hMCH1 Kb): 7 nM; Kb ([1]; Table 3b, antagonist potency, read-out: hMCH1 Kb): 7 nM; Kb ([1]; antagonist potency, inhibition of the response to 500 nM MCH, IC50 corrected by Cheng-Prussof, read-out: Kb (nM) hMCH1): 7 nM
COC(=O)C1=C(C)NC(=O)N(C(=O)NCCCN2CCC3(CC2)OCc2ccccc23)C1c1ccc2nonc2c1 (single isomer, unassigned) [Example 18, HYDROCHLORIDE] |  |  | 596 nM | 1220 nM | 1570 nM | 624 nM | 944 nM | 2540 nM | 31 nM |  | Kb [1]: 1 nM; Ki [2]: 1.7 nM
CCC1=C(C(=O)O)C(c2ccc(F)c(F)c2)N(C(=O)NCCCN2CCC3(CC2)OCc2ccccc23)C(=O)N1 (single isomer, unassigned; (+)) [Example 4, (+)-1,2,3,6-TETRAHYDRO-1-1N-[4-(BENZO-4′,5′(H)FURAN)PIPERIDIN-1-YL]PROPYL}-CARBOXAMIDO-4-ETHYL-6-(3,4-DIFLUOROPHENYL)-2-OXO-PYRIMIDINE-5 CARBOXYLIC ACID HYDROCHLORIDE] |  |  |  |  |  |  |  |  |  | 187 nM | 
COCC1=C(C(=O)OC)C(c2ccc(F)c(F)c2)N(C(=O)NCCCN2CCC(c3cccc(NC(C)=O)c3)CC2)C(=O)N1 (single isomer, unassigned; (-)) [Example 1, (−)-1,2,3,6-TETRAHYDRO-1-{N-[4-(3,-ACETAMIDO)-PHENYLPIPERIDIN-1-YL]PROPYL}CARBOXAMIDO-4-METHOXYMETHYL-6-(3,4-DIFLUORO-PHENYL)-2-OXOPYRIMIDINE-5-CARBOXYLIC ACID METHYL ESTER] | 2210 nM |  |  |  |  |  |  |  |  | 42 nM | 
COCC1=C(C(=O)OC)[C@H](c2ccc(F)c(F)c2)N(C(=O)NCCCN2CCC(c3cccc(NC(C)=O)c3)CC2)C(=O)N1 [Example 10, (+)-1,2,3,6-TETRAHYDRO-1-{N-[4-(3,-ACETAMIDO)-PHENYLPIPERIDIN-1-YL]PROPYL}CARBOXAMIDO-4-METHOXYMETHYL-6-(3,4-DIFLUORO-PHENYL)-2-OXOPYRIMIDINE-5-CARBOXYLIC ACID METHYL ESTER] | 45.8 nM | 4880 nM | 1930 nM | 5890 nM |  | > 50000 nM |  | 773 nM |  |  | Kb ([1]; intracellular calcium mobilization assay, read-out: antagonist potency (Kb)): 0.3 nM; Ki ([8]; Table 3e, * = >50000, read-out: hH2 Ki): > 50000 nM
COC(=O)C1=C(C)NC(=O)N(C(=O)NCCCN2CCC3(CC2)OCc2ccccc23)C1c1ccc(F)c(F)c1 (stereo not shown) [Example 20, 4-(3,4-DIFLUORPHENYL)-6-METHYL-2-OXO-3-{[3-(4-SPIRO[ISOBENZOFURAN-1(3H),4′-PIPERIDINE]PROPYL}-1,2,3,4-TETRAHYDROPYRIMIDINE-5-CARBOXYLIC ACID METHYL ESTER] |  |  |  |  | 2820 nM |  | 1910 nM |  | 39 nM |  | 
